Where “and” joins values, the source holds several entries; their conditions need not be identical. Identical values can stand only once.
Experiments:
[1] = test system: LNCaP tumor-transplanted mouse; assay: Internal radioactivity distribution using LNCaP tumor-transplanted mouse; assay type: in vivo
Summary of the method: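 Biodistribution is given as percent injected dose per gram of tissue, measured in blood and organs harvested at time points from 1 h to 192 h. Radiotracers were given by tail-vein injection in saline at 185–259 kBq, n=2–3. Hosts were male CB17 SCID mice carrying LNCaP or PC-3 tumours implanted s.c. in Matrigel 40–60 days earlier.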

[2] = test system: PC-3 tumor-transplanted mouse; assay: Internal radioactivity distribution using PC-3 tumor-transplanted mouse; assay type: in vivo
Experimental: (§1) The animal test was performed in compliance with the guidelines of Kyoto University Animal Experiment Committee. Male CB17/IcrJcl-Prkdc^scid mice were purchased from CLEA Japan, Inc. The animals were kept under 12 h/12 h, day/night cycle conditions and fed ad libitum with food and water. LNCaP cells (1.0×10^7 cells/mouse) or PC-3 cells (1.0×10^7 cells/mouse) were suspended in a mixture of PBS and Matrigel manufactured by Corning Life Sciences (1:1, 150 μL) and the suspension was subcutaneously transplanted to the right shoulder of mice under isoflurane anesthesia. Thereafter, the mice were kept for 40 to 60 days.
LNCaP or PC-3 tumor-implanted mice were administered saline solutions (185 kBq, 100 μL) of [^111In]In-PSMA-DA1 or [^111In]In-PSMA-DB from the tail vein (n=3 each). Mice were euthanized 1, 4, 24, 48, 96, and 192 hours after administration. Thereafter, blood and each organ were recovered, and the mass and radioactivity of the organs were measured.
The percentage (% ID) of the radioactivity amount to the administered radioactivity amount (injected dose) is shown as the value (% ID/g) divided by the blood mass or the organ mass (g).
as §1, with “LNCaP cells (4.3×10^6 cells/mouse) or” for “LNCaP cells (1.0×10^7 cells/mouse) or”, “PC-3 cells (3.3×10^6 cells/mouse) were” for “PC-3 cells (1.0×10^7 cells/mouse) were”, “shoulder of CB17/IcrJcl-Prkdc^scid mice under” for “shoulder of mice under”
Mice were euthanized 1, 4, 24, 48, 96, and 192 hours after administration. Thereafter, blood and each organ were recovered, and the mass and radioactivity of the organs were measured.
The results are shown in Table 13 (Mean value±standard deviation, n=3).

[3] = 24 h after administration, PC-3 tumor-transplanted mice

## O=C(O)CC[C@H](NC(=O)N[C@@H](CCCCNC(=O)[C@H](Cc1ccc2ccccc2c1)NC(=O)[C@H]1CC[C@H](CNC(=O)CCC(C(=O)O)N2CCN(CC(=O)O)CCN(C(CCC(=O)N[C@@H](CCCCNC(=O)CCCc3ccc(I)cc3)C(=O)O)C(=O)O)CCN(CC(=O)O)CC2)CC1)C(=O)O)C(=O)O (some centres unmarked) [[^111In]In-PSMA-NAT-DA1, metal not drawn]
[1]; 1 h after administration
  Blood: 39.8 ± 2.91 % ID/g
  Brain: 0.63 ± 0.03 % ID/g
  Heart: 10.8 ± 1.31 % ID/g
  Intestine: 3.40 ± 0.24 % ID/g
  Kidney: 41.5 ± 4.27 % ID/g
  LNCaP Tumor: 23.0 ± 2.20 % ID/g
  Liver: 8.24 ± 2.38 % ID/g
  Lung: 28.1 ± 8.65 % ID/g
  Muscle: 2.82 ± 0.55 % ID/g
  Pancreas: 7.32 ± 1.27 % ID/g
  Spleen: 31.2 ± 2.84 % ID/g
  Stomach (% ID): 0.94 ± 0.35 % ID
[1]; 4 h after administration
  Blood: 38.8 ± 8.25 % ID/g
  Brain: 0.83 ± 0.20 % ID/g
  Heart: 12.2 ± 2.44 % ID/g
  Intestine: 3.47 ± 0.42 % ID/g
  Kidney: 66.2 ± 13.0 % ID/g
  LNCaP Tumor: 43.6 ± 8.49 % ID/g
  Liver: 8.38 ± 2.27 % ID/g
  Lung: 26.5 ± 5.70 % ID/g
  Muscle: 3.69 ± 0.83 % ID/g
  Pancreas: 5.85 ± 1.34 % ID/g
  Spleen: 23.0 ± 3.16 % ID/g
  Stomach (% ID): 1.32 ± 0.19 % ID
[1]; 24 h after administration
  Blood: 10.9 ± 5.55 % ID/g
  Brain: 0.27 ± 0.13 % ID/g
  Heart: 3.14 ± 1.52 % ID/g
  Intestine: 1.26 ± 0.70 % ID/g
  Kidney: 37.1 ± 19.3 % ID/g
  LNCaP Tumor: 51.9 ± 39.3 % ID/g
  Liver: 2.73 ± 1.08 % ID/g
  Lung: 8.76 ± 4.02 % ID/g
  Muscle: 1.23 ± 0.36 % ID/g
  Spleen: 13.5 ± 8.18 % ID/g
  Stomach (% ID): 0.28 ± 0.16 % ID
[1]; 48 h after administration
  Blood: 12.3 % ID/g and 12.3 ± 1.56 % ID/g
  Brain: 0.45 ± 0.03 % ID/g
  Heart: 4.68 ± 0.92 % ID/g
  Intestine: 1.39 ± 0.06 % ID/g
  Kidney: 79.0 ± 6.78 % ID/g
  LNCaP Tumor: 131.6 ± 22.0 % ID/g
  Liver: 4.49 ± 0.71 % ID/g
  Lung: 11.1 ± 2.24 % ID/g
  Muscle: 1.48 ± 0.31 % ID/g
  Pancreas: 2.26 ± 0.15 % ID/g
  Spleen: 17.8 ± 1.05 % ID/g
  Stomach (% ID): 0.44 ± 0.09 % ID
[1]; 96 h after administration
  Blood: 4.07 ± 1.37 % ID/g
  Brain: 0.18 ± 0.04 % ID/g
  Heart: 2.10 ± 0.83 % ID/g
  Intestine: 0.86 ± 0.54 % ID/g
  Kidney: 22.0 ± 14.9 % ID/g
  LNCaP Tumor: 56.2 ± 35.6 % ID/g
  Liver: 2.31 ± 0.89 % ID/g
  Lung: 4.55 ± 2.33 % ID/g
  Muscle: 0.59 ± 0.09 % ID/g
  Pancreas: 2.60 ± 3.18 % ID/g
  Spleen: 6.33 ± 5.25 % ID/g
  Stomach (% ID): 0.19 ± 0.10 % ID
[1]; 192 h after administration
  Blood: 2.47 ± 0.52 % ID/g
  Heart: 1.19 ± 0.24 % ID/g
  Intestine: 0.55 ± 0.15 % ID/g
  Kidney: 11.9 ± 2.08 % ID/g
  LNCaP Tumor: 35.0 ± 27.3 % ID/g
  Liver: 2.25 ± 0.45 % ID/g
  Lung: 2.81 ± 0.36 % ID/g
  Muscle: 0.33 ± 0.05 % ID/g
  Pancreas: 0.94 ± 0.32 % ID/g
  Spleen: 3.77 ± 0.54 % ID/g
  Stomach (% ID): 0.12 ± 0.01 % ID
[2]; [3]
  Blood: 5.73 ± 1.10 % ID/g
  Brain: 0.22 ± 0.03 % ID/g
  Heart: 2.67 ± 0.58 % ID/g
  Intestine: 0.68 ± 0.07 % ID/g
  Kidney: 27.9 ± 6.05 % ID/g
  Liver: 1.74 ± 0.37 % ID/g
  Lung: 7.41 ± 1.13 % ID/g
  Muscle: 0.83 ± 0.26 % ID/g
  PC-3 Tumor: 3.21 ± 1.00 % ID/g
  Pancreas: 1.25 ± 0.04 % ID/g
  Spleen: 6.94 ± 4.55 % ID/g
  Stomach (% ID): 0.15 ± 0.03 % ID
[2]; mouse, in vivo
  accumulation at the PC-3 tumor compared with the LNCaP tumor at the same time point (in words): significantly lower

Reference: patent US20240174622A1, “COMPOUND AND RADIOACTIVE LABELING COMPOUND” (NIHON MEDI-PHYSICS CO., LTD., priority 2021, published 2024)
